According to patent US11766470B2, “Manufacture, formulation and dosing of apraglutide” (VectivBio AG, priority 2020, dated 2023):
Square brackets hold non-standard residues; d marks the D form. Peptide text beside a SMILES is read from it. ξ: configuration not given here. Ile(3ξ) = CCC(C)[C@H](N)C(=O)O; Thr(3ξ) = CC(O)[C@H](N)C(=O)O; Nle = CCCC[C@H](N)C(=O)O

System: patients with SBS-IF
Experiment: Phase 2 placebo-controlled crossover trial in SBS-IF patients (Example 5): urine output, urine sodium, PS volume, oral fluid intake, hydration parameters, plasma L-citrulline, body composition
Type: in vivo, human
Conditions: for Fluid composite effect (increase urine production + reduction PS volume + reduction oral fluid intake): post-hoc
Protocol: The following non-limiting example describes results from a Phase 2 clinical trial in which subjects with SBS-IF were treated with the apraglutide formulations of the present disclosure. This Phase 2 trial investigated the safety and efficacy of 5 and 10 mg apraglutide in patients with SBS-IF.
Eight adult patients with SBS-IF were treated with apraglutide compositions of the present disclosure according to Table 6. Briefly, patients with SBS-IF were administered 5 mg apraglutide of the present disclosure or placebo once a week for four weeks. The patients were then administered 10 mg apraglutide of the present disclosure once a week for four weeks. Additionally, there was a washout period of 6-10 weeks between treatments.
The trial described in Example 5 was a double-blind, crossover, randomized, placebo-controlled, phase 2 trial followed by an additional treatment period in an open-label regimen. Eight adult patients (aged ≥18 to ≤80 years) with SBS-IF were enrolled in the trial. Patient eligibility was assessed during a screening visit. The main inclusion criteria were: Patients with SBS secondary to surgical resection of the small bowel with a jejuno- or ileostomy, at least 6 months since last bowel resection, a fecal output of at least 1500 g/day as recorded within the last 18 months, and PS-infusions≥3 times per week for ≥12 months according to the patient's medical record. Patients were excluded, if they had clinical signs of activity in inflammatory bowel disease, a history of cancer within ≤5 years or an inadequate hepatic, kidney, or heart function. Patients were also excluded, if they had received native GLP-2 or a GLP-2 analogue within the last 3 months.
The procedures during each treatment period were consistent.
Efficacy assessments were performed for each treatment period of 29 days. Patients received a paper diary for recording PS volume administration, urine collections and oral fluid intakes at specific time points. Patients performed home 48-hour urine collections at baseline (day −2 to 1), immediately after first treatment injection (day 1 to 3), and at the end of the treatment period (day 27-29, […] after the fourth administration of the trial drug). Urine was collected by the patient in a urine container with volume markings and 48-hour urine volumes were reported in the diary. After completing the 48-hour collection, patients transferred approximately 100 mL of urine from the container to a sample which was delivered at the next patient visit. The amount of sodium excreted per 48 hours was then calculated as the concentration of sodium in the sample multiplied by the total volume of urine collected. During each urine collection, weekly PS volume and content and daily oral fluid intake were kept constant. Since they were kept constant, increases in urine volume were a sign of increased fluid absorption. […] Patients were to adhere to their drinking menu during each urine collection and the concomitant 48-hour oral fluid intake was reported in the diary during each urine collection.
On day 20-22, patients were informed to record their spontaneous oral fluid intake during 48 hours. This measurement was included to investigate whether increased intestinal absorption was associated with a decrease in their spontaneous oral fluid intake.
Between day 4 and 24, PS volume reductions were allowed if deemed clinically necessary by the investigator. […] PS volume reductions were assessed during day 20-22. Patients returned to their baseline PS volume and content during the end of the treatment urine collection (day 27-29). Concomitant medications including proton-pump inhibitors, loperamide, and opiates were kept unchanged and stable throughout the trial. If necessary, adjustments could be made in the drinking menu and prescribed PS volume and content between treatment periods based on discussions between the patient and the investigator.
Body weight was measured using a levelled platform scale. […]

[1] = 5 mg vs placebo, Part A+B, end of treatment
[2] = 5 mg vs placebo, Part A, day 1-3 after first injection
[3] = 5 mg vs placebo, Part A, day 20-22
[4] = 5 mg vs placebo, Part A, day 27-29
[5] = 5 mg vs placebo, Part A, end of treatment
[6] = 10 mg vs placebo, Part A+B, day 1-3 after first injection
[7] = 10 mg vs placebo, Part A+B, day 20-22
[8] = 10 mg vs placebo, Part A+B, day 27-29
[9] = 10 mg vs placebo, Part A+B, end of treatment

CCCC[C@H](NC(=O)[C@H](CCC(=O)O)NC(=O)[C@H](CC(=O)O)NC(=O)[C@H](CO)NC(=O)[C@H](Cc1ccccc1)NC(=O)[C@H](CO)NC(=O)CNC(=O)[C@H](CC(=O)O)NC(=O)CNC(=O)[C@@H](N)Cc1c[nH]cn1)C(=O)N[C@H](Cc1ccccc1)C(=O)N[C@H](C(=O)N[C@H](C(=O)N[C@@H](CC(C)C)C(=O)N[C@@H](CC(=O)O)C(=O)N[C@@H](CC(C)C)C(=O)N[C@@H](CC(C)C)C(=O)N[C@@H](C)C(=O)N[C@@H](C)C(=O)N[C@@H](CCCNC(=N)N)C(=O)N[C@@H](CC(=O)O)C(=O)N[C@@H](Cc1ccccc1)C(=O)N[C@H](C(=O)N[C@@H](CC(N)=O)C(=O)N[C@@H](Cc1c[nH]c2ccccc12)C(=O)N[C@@H](CC(C)C)C(=O)N[C@H](C(=O)N[C@@H](CCC(N)=O)C(=O)N[C@H](C(=O)N[C@@H](CCCCN)C(=O)N[C@H](C(=O)N[C@H](C(=O)N[C@@H](CC(=O)O)C(N)=O)C(C)O)C(C)CC)C(C)O)C(C)CC)C(C)CC)C(C)CC)C(C)O (stereo partly drawn) [apraglutide, L-histidyl-glycyl-L-aspartyl-glycyl-L-seryl-L-phenylalanyl-L-seryl-L-aspartyl-L-glutamyl-L-norleucyl-D-phenylalanyl-L-threonyl-Lisoleucyl-L-leucyl-L-aspartyl-L-leucyl-L-leucyl-L-alanyl-L-alanyl-L-arginyl-L-aspartyl-L-phenylalanyl-L-isoleucyl-L-asparaginyl-Ltryptophanyl-L-leucyl-L-isoleucyl-L-glutaminyl-L-threonyl-L-lysyl-L-isoleucyl-L-threonyl-Laspartic acid amide] (H-HGDGSFSDE[Nle][dF][Thr(3ξ)][Ile(3ξ)]LDLLAARDF[Ile(3ξ)]NWL[Ile(3ξ)]Q[Thr(3ξ)]K[Ile(3ξ)][Thr(3ξ)]D-NH2)
Relative body weight, adjusted mean change from baseline [1]: 3 (0 to 6); %
Relative bone mineral content, adjusted mean change from baseline [1]: 0 (−3 to 3); %
Relative fat body mass, adjusted mean change from baseline [1]: 10 (1 to 18); %
Relative lean body mass, adjusted mean change from baseline [1]: 2 (−5 to 9); %
Relative plasma L-citrulline, adjusted mean change from baseline [1]: 65 (15 to 115); %
Urea, adjusted mean change from baseline [1]: −0.9 (−2.4 to 0.6); mmol/L
Absolute urine output, adjusted mean change from baseline [2]: −48 (−696 to 601); mL/day
Relative urine output, adjusted mean change from baseline [2]: 5 (−38 to 48); %
Urine sodium excretion (%), adjusted mean change from baseline [2]: 64 (−306 to 433); %
Urine sodium excretion, adjusted mean change from baseline [2]: 3 (−146 to 152); mmol/day
PS volume, adjusted mean change from baseline [3]: −94 (−344 to 156); P = .356 mL/day
Relative PS volume, adjusted mean change from baseline [3]: −13 (−41 to 15); P = .276%
Relative oral fluid intake, adjusted mean change from baseline [3]: −9 (−18 to 1); P = .068%
Absolute urine output, adjusted mean change from baseline [4]: 714 mL/day
Relative urine output, adjusted mean change from baseline [4]: 49%
Urine sodium excretion (%), adjusted mean change from baseline [4]: 189 (−350 to 729); P = .270%
Urine sodium excretion, adjusted mean change from baseline [4]: 66 (−69 to 201); P = .171 mmol/day
Body weight, adjusted mean change from baseline [5]: 1.9 (−0.8 to 4.5); kg
Bone mineral content, adjusted mean change from baseline [5]: −4 (−132 to 123); g
Fat body mass, adjusted mean change from baseline [5]: 1.74 (−0.36 to 3.83); kg
Lean body mass, adjusted mean change from baseline [5]: 0.49 (−4.65 to 5.64); kg
Plasma L-citrulline, adjusted mean change from baseline [5]: 17.7 (−6.3 to 41.7); μmol/L
Relative body weight, adjusted mean change from baseline [5]: 3 (−1 to 7); %
Relative bone mineral content, adjusted mean change from baseline [5]: 0 (−6 to 6); %
Relative fat body mass, adjusted mean change from baseline [5]: 9 (−5 to 24); %
Relative lean body mass, adjusted mean change from baseline [5]: 2 (−11 to 15); %
Relative plasma L-citrulline, adjusted mean change from baseline [5]: 66 (−13 to 145); %
Fluid composite effect (increase urine production + reduction PS volume + reduction oral fluid intake) (5 mg vs placebo, Part A+B): 1,036 mL/day
Absolute urine output, adjusted mean change from baseline [6]: −64 (−500 to 372); mL/day
Relative urine output, adjusted mean change from baseline [6]: −6 (−37 to 24); %
Urine sodium excretion (%), adjusted mean change from baseline [6]: 22 ( −75 to 119); %
Urine sodium excretion, adjusted mean change from baseline [6]: 3 (−17 to 22); mmol/day
Relative PS volume, adjusted mean change from baseline [7]: −28 (−51 to −4); %
Relative oral fluid intake, adjusted mean change from baseline [7]: −15 (−25 to −5); %
Absolute urine output, adjusted mean change from baseline [8]: 795 (195 to 1,394); mL/day
Relative urine output, adjusted mean change from baseline [8]: 34 (−4 to 71); %
Urine sodium excretion (%), adjusted mean change from baseline [8]: 432 ( −87 to 951); %
Urine sodium excretion, adjusted mean change from baseline [8]: 88 (20 to 156); mmol/day
Albumin, adjusted mean change from baseline [9]: 1.0 (−0.9 to 2.9); g/L
Body weight, adjusted mean change from baseline [9]: 1.3 (−0.6 to 3.2); kg
Bone mineral content, adjusted mean change from baseline [9]: 8 (−64 to 81); g
CO2 total, adjusted mean change from baseline [9]: 1.3 (−1.1 to 3.7); mmol/L
Creatinine, adjusted mean change from baseline [9]: −5.1 (−22.1 to 11.9); umol/L
Fat body mass, adjusted mean change from baseline [9]: 0.33 (−1.20 to 1.85); kg
Hematocrit, adjusted mean change from baseline [9]: 0.2 (−0.7 to 1.0); vol/fr
Lean body mass, adjusted mean change from baseline [9]: 0.76 (−2.47 to 3.99); kg
Plasma L-citrulline, adjusted mean change from baseline [9]: 14.0 (−2.3 to 30.3); μmol/L
Protein, adjusted mean change from baseline [9]: −0.7 (−4.7 to 3.3); g/L
Relative body weight, adjusted mean change from baseline [9]: 2 (−1 to 5); %
Relative bone mineral content, adjusted mean change from baseline [9]: 0 (−3 to 3); %
Relative fat body mass, adjusted mean change from baseline [9]: 2 (−7 to 11); %
Relative lean body mass, adjusted mean change from baseline [9]: 2 (−6 to 9); %
Relative plasma L-citrulline, adjusted mean change from baseline [9]: 42 (−10 to 94); %
Urea, adjusted mean change from baseline [9]: −0.6 (−2.2 to 1.0); mmol/L
Fluid composite effect (increase urine production + reduction PS volume + reduction oral fluid intake) (10 mg vs placebo, Part A+B): 1,630 mL/day
